The source of these data is patent US20120129831A1, “Substituted 3-(1,2,4-Oxadiazol-5-yl)-5-Phenylpiperidines” (BAYER PHARMA AKTIENGESELLSCHAFT, priority 2009, published 2012).

Structures are written as SMILES.

This assay addresses T1, human protease activated receptor 1 (PAR-1) (Homo sapiens, UniProt P25116).
T1 construct: the cell stably expresses the endogenous human PAR-1 receptor and the endogenous purinergic receptor P2Y2; endogenous in cells; host or cells: HEK293-derived recombinant cell line; only the mitochondrial aequorin is recombinant
T1 sequence (P25116 22-425): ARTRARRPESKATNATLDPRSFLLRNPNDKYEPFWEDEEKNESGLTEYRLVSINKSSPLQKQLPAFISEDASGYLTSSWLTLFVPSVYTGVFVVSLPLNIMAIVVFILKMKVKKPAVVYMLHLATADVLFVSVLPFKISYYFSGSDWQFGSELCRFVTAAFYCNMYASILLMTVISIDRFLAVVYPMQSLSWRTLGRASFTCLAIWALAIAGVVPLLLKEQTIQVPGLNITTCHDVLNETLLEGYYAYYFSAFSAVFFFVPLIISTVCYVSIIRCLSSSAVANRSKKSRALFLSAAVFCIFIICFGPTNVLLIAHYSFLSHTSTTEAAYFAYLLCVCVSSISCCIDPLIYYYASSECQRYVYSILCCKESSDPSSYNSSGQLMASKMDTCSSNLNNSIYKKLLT
Nature of the assay: Cellular functional in vitro test (aequorin luminescence, PAR-1 antagonism). Type of assay: cell-based. To be noted: recombinant HEK293 aequorin cell line, endogenous human PAR-1; PAR-1 agonist at EC50; calcium luminescence. The text has this: A recombinant cell line is used to identify antagonists of the human protease activated receptor 1 (PAR-1) and to quantify the activity of the substances described herein. The cell is originally derived from a human embryonal kidney cell (HEK293; ATCC: American Type Culture Collection, Manassas, Va. 20108, USA). The test cell line constitutively expresses a modified form of the calcium-sensitive photoprotein aequorin which, after reconstitution with the cofactor coelenterazine, emits light when the free calcium concentration in the inner mitochondrial compartment is increased (Rizzuto R, Simpson A W, Brini M, Pozzan T.; Nature 1992, 358, 325-327). Additionally, the cell stably expresses the endogenous human PAR-1 receptor and the endogenous purinergic receptor P2Y2. The resulting PAR-1 test cell responds to stimulation of the endogenous PAR-1 or P2Y2 receptor with an intracellular release of calcium ions, which can be quantified through the resulting aequorin luminescence with a suitable luminometer (Milligan G, Marshall F, Rees S, Trends in Pharmacological Sciences 1996, 17, 235-237). […]
Test procedure: The cells are plated out two days (48 h) before the test in culture medium (DMEM F12, supplemented with 10% FCS, 2 mM glutamine, 20 mM HEPES, 1.4 mM pyruvate, 0.1 mg/ml gentamycin, 0.15% Na bicarbonate; BioWhittaker Cat. #BE04-687Q; B-4800 Verviers, Belgium) in 384-well microtitre plates and kept in a cell incubator (96% atmospheric humidity, 5% v/v CO2, 37° C.). […] The test substances are then pipetted onto the microtitre plate, and 5 minutes after the transfer of the test substances into the wells of the microtitre plate the plate is transferred into the luminometer, a PAR-1 agonist concentration which corresponds to EC50 is added and the resulting light signal is immediately measured in the luminometer. To distinguish an antagonist substance action from a toxic action, the endogenous purinergic receptor is immediately subsequently activated with agonist (ATP, final concentration 10 μM) and the resulting light signal is measured.
One may read the IC50 as the concentration that gives 50% inhibition. On to `O=C(N1CC(O)C1)N1CC(c2ccc(OC(F)(F)F)cc2)CC(c2nc(C3CC3)no2)C1` (single isomer, unassigned) [Example 7, {3-(3-Cyclopropyl-1,2,4-oxadiazol-5-yl)-5-[4-(trifluoromethoxy)phenyl]piperidin-1-yl}(3-hydroxyazetidin-1-yl)methanone], for which the concentration for half-maximal inhibition (IC50) worked out at 34 nM.

With `COCCc1noc(C2CC(c3ccc(OC(F)(F)F)cc3)CN(C(=O)N3CC(O)C3)C2)n1` (single isomer, unassigned) [Example 9, (3-Hydroxyazetidin-1-yl){3-[3-(2-methoxyethyl)-1,2,4-oxadiazol-5-yl]-5-[4-(trifluoromethoxy)-phenyl]piperidin-1-yl}methanone], the concentration for half-maximal inhibition (IC50) amounted to 28 nM.

In the case of `CCOCCc1noc(C2CC(c3ccc(CC)cc3)CN(C(=O)N3CCC(O)CC3)C2)n1` (single isomer, unassigned) [Example 15, {3-[3-(2-Ethoxyethyl)-1,2,4-oxadiazol-5-yl]-5-(4-ethylphenyl)piperidin-1-yl}(4-hydroxypiperidin-1-yl)methanone], the IC50 stood at 8.6 nM.
